Reference: ChEMBL document CHEMBL1123048 (J Med Chem, 1985)
In brackets after ≈: the same amount, converted by molar mass.

Tests used:
Adenosine receptor A1 [1] = target: T1, Adenosine receptor A1 (Rattus norvegicus, UniProt P25099)
T1 sequence (P25099 whole entry): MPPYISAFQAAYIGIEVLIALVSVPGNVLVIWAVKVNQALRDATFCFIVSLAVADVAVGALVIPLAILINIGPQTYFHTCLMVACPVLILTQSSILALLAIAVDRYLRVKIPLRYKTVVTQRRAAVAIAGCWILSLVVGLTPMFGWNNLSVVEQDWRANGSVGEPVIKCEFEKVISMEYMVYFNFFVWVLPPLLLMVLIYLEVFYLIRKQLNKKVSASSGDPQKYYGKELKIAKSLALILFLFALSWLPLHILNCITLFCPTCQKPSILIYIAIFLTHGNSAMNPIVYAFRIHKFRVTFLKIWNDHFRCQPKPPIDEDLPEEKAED
Description: Binding affinity towards adenosine A1 receptor in rat cerebral cortical membranes by [3H]cyclohexyladenosine displacement.

[2] = Solubility in 0.1 M sodium phosphate, and at pH 7.2; format: physicochemical; conditions: 0.1 M sodium phosphate buffer
Adenosine receptor A1 [3] = target: T1, Adenosine receptor A1; test: Binding affinity towards adenosine A1 receptor in rat cerebral cortical membranes with 1 nM [3H]cyclohexyladenosine; format: cell membranes
[4] = target: Adenosine A2 receptor (Cavia porcellus)
[5] = target: Adenosine A2 receptor (Cavia porcellus); test: Binding affinity against A2 adenosine receptor in [3H]adenine-labeled guinea pig cerebral cortical slices

Compound | Ki (Adenosine receptor A1 [1]) [nM] | Ki [4] [nM] | also measured
CCCn1c(=O)c2nc(-c3ccc(OCC(=O)NCCNC(C)=O)cc3)[nH]c2n(CCC)c1=O | 24 |  | 
CCCn1c(=O)c2nc(-c3ccc(OCC(=O)N(C)C)cc3)[nH]c2n(CCC)c1=O | 32 |  | 
CCCn1c(=O)c2[nH]c(-c3ccc(OCC(N)=O)cc3)nc2n(CCC)c1=O |  |  | solubility [2]: 26 µM (≈ 10 µg/mL); Ki (Adenosine receptor A1 [3]): 6 nM
CCCn1c(=O)c2nc(-c3ccc(OCC(=O)ON4C(=O)CCC4=O)cc3)[nH]c2n(CCC)c1=O |  | 40 | 
CCCn1c(=O)c2nc(-c3ccc(O)cc3)[nH]c2n(CCC)c1=O |  |  | solubility [2]: 3.2 µM (≈ 1.05 µg/mL)
CCCn1c(=O)c2nc(-c3ccc(OCC(=O)OCC)cc3)[nH]c2n(CCC)c1=O |  | 30 | 
CCCn1c(=O)c2nc(-c3ccc(OCC(=O)NCCNC(=O)CCCCC4SCC5NC(=O)NC54)cc3)[nH]c2n(CCC)c1=O (stereo not drawn) | 54 |  | Ki [5]: 180 nM
Cn1c(=O)c2nc(-c3ccc(OCC(=O)O)cc3)[nH]c2n(C)c1=O | 500 | 430 | 
CCCn1c(=O)c2nc(-c3ccc(OCC(=O)NN)cc3)[nH]c2n(CCC)c1=O | 59 |  | 
CCCn1c(=O)c2nc(-c3ccc(OCC(=O)N(C(=O)NC4CCCCC4)C4CCCCC4)cc3)[nH]c2n(CCC)c1=O | 96 |  | 
CC(=O)O.CCCn1c(=O)c2nc(-c3ccc(OCC(=O)NCCN(CC)Cc4ccc(O)cc4)cc3)[nH]c2n(CCC)c1=O | 2.2 | 320 | 
CCCn1c(=O)c2nc(-c3ccc(OCC(=O)NCCCCCCCCN)cc3)[nH]c2n(CCC)c1=O | 5 | 470 | 
CCCn1c(=O)c2nc(-c3ccc(OCC(=O)Nc4ccc(C)cc4)cc3)[nH]c2n(CCC)c1=O | 36 | 750 | 
Cc1ccc(NC(=O)COc2ccc(-c3nc4c(=O)n(C)c(=O)n(C)c4[nH]3)cc2)cc1 | 26 |  | 
CCCn1c(=O)c2nc(-c3ccc(OCC(=O)Nc4ccc(O)cc4)cc3)[nH]c2n(CCC)c1=O | 4.1 | 62 | 
CCCn1c(=O)c2[nH]c(-c3ccc(OCC(=O)NCCN)cc3)nc2n(CCC)c1=O [XANTHINE AMINE CONGENER] |  |  | solubility [2]: 90 µM (≈ 38.6 µg/mL)
